From ChEMBL document CHEMBL2429821, “A Casein kinase 1/Checkpoint kinase 1 pyrazolo-pyridine protein kinase inhibitor as novel activator of the p53 pathway” (Bioorg Med Chem Lett, 2013)

How the values were obtained:
[1] = target: Tyrosine-protein kinase SYK (Homo sapiens) (UniProt P43405); assay: Inhibition of human SYK assessed as residual activity at 1 uM relative to control
[2] = target: Ribosomal protein S6 kinase beta-1 (Homo sapiens) (UniProt P23443); assay: Inhibition of human S6K1 assessed as residual activity at 1 uM relative to control
[3] = target: Serine/threonine-protein kinase Nek6 (Homo sapiens) (UniProt Q9HC98); assay: Inhibition of human NEK6 assessed as residual activity at 1 uM relative to control
[4] = target: Aurora kinase B (Homo sapiens) (UniProt Q96GD4); assay: Inhibition of human Aurora-B assessed as residual activity at 1 uM relative to control
[5] = target: Ribosomal protein S6 kinase alpha-5 (Homo sapiens) (UniProt O75582); assay: Inhibition of human MSK1 assessed as residual activity at 10 uM relative to control
[6] = target: Casein kinase II (Homo sapiens) (UniProt P67870+P68400+P19784); assay: Inhibition of human CK2 assessed as residual activity at 10 uM relative to control; format: protein-complex assay
[7] = target: T1, Serine/threonine-protein kinase TBK1 (Homo sapiens) (UniProt Q9UHD2); assay: Inhibition of human TBK1 assessed as residual activity at 1 uM relative to control
T1 sequence (whole entry): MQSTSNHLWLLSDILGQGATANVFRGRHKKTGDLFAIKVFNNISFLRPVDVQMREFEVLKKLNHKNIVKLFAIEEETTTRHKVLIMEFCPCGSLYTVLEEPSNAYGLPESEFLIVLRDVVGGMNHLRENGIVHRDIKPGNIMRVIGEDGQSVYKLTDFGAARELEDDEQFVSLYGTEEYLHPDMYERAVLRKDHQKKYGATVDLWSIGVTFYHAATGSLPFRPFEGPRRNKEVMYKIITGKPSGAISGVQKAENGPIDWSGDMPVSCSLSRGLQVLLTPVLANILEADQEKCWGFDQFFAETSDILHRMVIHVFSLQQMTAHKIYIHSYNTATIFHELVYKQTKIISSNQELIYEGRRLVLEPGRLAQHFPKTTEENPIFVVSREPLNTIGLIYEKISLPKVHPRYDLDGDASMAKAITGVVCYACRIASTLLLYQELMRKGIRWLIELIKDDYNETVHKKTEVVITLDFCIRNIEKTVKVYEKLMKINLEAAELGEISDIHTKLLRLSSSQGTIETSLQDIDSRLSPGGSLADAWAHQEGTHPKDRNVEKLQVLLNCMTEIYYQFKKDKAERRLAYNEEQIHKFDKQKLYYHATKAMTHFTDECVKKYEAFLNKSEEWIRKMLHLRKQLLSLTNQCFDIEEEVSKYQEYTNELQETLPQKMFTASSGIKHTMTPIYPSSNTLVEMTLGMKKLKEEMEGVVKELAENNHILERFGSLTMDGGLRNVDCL

[8] = target: T2, Serine/threonine-protein kinase Sgk1 (Homo sapiens) (UniProt O00141); assay: Inhibition of human SGK1 assessed as residual activity at 10 uM relative to control
T2 sequence (whole entry): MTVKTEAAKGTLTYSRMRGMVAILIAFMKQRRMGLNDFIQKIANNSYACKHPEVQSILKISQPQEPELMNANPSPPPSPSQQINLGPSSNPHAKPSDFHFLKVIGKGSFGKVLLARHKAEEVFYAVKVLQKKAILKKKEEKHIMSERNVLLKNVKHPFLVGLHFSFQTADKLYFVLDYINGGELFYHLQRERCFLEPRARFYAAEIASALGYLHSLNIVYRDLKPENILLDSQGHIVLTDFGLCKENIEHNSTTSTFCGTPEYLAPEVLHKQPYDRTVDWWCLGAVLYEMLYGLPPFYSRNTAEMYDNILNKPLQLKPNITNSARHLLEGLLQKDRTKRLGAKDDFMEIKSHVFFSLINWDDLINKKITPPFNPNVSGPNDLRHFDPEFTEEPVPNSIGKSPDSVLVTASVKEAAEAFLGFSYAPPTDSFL

[9] = target: Myosin light chain kinase, smooth muscle (Homo sapiens) (UniProt Q15746); assay: Inhibition of human smMLCK assessed as residual activity at 10 uM relative to control
[10] = target: T3, Serine/threonine-protein kinase D1 (Homo sapiens) (UniProt Q15139); assay: Inhibition of human PKD1 assessed as residual activity at 10 uM relative to control
T3 sequence (whole entry): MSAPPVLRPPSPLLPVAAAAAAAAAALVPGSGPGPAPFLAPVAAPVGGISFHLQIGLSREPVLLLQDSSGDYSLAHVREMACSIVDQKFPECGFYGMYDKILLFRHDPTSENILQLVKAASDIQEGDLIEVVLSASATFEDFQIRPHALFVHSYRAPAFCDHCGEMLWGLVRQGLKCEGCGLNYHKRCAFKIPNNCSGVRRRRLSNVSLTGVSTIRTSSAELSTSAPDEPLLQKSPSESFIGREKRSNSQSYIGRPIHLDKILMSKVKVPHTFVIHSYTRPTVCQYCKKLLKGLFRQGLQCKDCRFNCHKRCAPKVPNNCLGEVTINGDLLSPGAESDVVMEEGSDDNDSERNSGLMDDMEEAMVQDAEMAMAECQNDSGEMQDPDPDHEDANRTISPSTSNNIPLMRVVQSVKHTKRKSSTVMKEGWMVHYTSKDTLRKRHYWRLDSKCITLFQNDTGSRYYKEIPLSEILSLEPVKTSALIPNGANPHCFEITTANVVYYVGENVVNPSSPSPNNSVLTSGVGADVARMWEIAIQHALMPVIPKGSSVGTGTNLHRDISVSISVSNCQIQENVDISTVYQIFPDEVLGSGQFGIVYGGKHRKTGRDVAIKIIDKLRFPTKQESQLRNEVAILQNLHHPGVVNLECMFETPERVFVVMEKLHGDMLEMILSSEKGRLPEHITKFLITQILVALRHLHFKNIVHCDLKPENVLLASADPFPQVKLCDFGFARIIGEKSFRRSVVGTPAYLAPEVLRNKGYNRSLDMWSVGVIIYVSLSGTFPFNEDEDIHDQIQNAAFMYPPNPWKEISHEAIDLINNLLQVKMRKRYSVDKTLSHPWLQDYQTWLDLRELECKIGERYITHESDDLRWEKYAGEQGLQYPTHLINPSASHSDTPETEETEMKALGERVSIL

[11] = target: MAP/microtubule affinity-regulating kinase 3 (Homo sapiens) (UniProt P27448); assay: Inhibition of human MARK3 assessed as residual activity at 10 uM relative to control
[12] = target: Maternal embryonic leucine zipper kinase (Homo sapiens) (UniProt Q14680); assay: Inhibition of human MELK assessed as residual activity at 10 uM relative to control
[13] = target: Tyrosine-protein kinase BTK (Homo sapiens) (UniProt Q06187); assay: Inhibition of human BTK assessed as residual activity at 10 uM relative to control
[14] = target: 3-phosphoinositide-dependent protein kinase 1 (Homo sapiens) (UniProt O15530); assay: Inhibition of human PDK1 assessed as residual activity at 10 uM relative to control
3-phosphoinositide-dependent protein kinase 1 (Homo sapiens), sequence (O15530 whole entry, looked up): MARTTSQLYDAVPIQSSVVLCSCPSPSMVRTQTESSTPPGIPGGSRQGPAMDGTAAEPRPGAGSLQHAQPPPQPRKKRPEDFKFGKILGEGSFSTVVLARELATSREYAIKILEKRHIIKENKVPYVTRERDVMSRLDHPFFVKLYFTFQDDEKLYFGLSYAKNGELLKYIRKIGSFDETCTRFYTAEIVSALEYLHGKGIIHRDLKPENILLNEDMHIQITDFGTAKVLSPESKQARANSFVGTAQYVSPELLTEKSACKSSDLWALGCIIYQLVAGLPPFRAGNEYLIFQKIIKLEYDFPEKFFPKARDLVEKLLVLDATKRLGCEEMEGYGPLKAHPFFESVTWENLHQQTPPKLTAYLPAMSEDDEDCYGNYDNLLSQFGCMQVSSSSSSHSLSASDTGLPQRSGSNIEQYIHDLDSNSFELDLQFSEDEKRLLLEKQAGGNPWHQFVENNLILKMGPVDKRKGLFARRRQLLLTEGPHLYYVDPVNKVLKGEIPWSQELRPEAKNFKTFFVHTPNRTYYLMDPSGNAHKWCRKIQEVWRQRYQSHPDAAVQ

MAP/microtubule affinity-regulating kinase 3 (Homo sapiens), sequence (P27448 whole entry, looked up): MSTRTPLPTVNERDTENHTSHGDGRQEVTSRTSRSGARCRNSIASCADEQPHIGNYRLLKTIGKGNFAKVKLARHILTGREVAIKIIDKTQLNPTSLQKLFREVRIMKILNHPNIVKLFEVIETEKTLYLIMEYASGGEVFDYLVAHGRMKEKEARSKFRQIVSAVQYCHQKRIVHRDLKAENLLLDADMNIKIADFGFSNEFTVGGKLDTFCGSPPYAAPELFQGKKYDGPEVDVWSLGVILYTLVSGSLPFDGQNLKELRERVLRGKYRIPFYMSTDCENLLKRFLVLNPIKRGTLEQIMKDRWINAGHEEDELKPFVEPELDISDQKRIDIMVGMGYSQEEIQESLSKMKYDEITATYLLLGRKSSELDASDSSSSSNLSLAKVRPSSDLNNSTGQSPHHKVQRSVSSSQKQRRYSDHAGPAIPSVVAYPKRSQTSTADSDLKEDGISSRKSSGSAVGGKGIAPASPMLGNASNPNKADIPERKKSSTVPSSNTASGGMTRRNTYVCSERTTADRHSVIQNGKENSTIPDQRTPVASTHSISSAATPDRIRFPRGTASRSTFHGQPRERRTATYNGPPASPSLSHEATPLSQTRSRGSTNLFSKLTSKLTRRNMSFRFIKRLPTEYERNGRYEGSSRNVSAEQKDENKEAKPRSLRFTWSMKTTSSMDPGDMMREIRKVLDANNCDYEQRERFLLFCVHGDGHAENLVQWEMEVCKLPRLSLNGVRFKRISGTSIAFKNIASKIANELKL
Myosin light chain kinase, smooth muscle (Homo sapiens), sequence (Q15746 whole entry): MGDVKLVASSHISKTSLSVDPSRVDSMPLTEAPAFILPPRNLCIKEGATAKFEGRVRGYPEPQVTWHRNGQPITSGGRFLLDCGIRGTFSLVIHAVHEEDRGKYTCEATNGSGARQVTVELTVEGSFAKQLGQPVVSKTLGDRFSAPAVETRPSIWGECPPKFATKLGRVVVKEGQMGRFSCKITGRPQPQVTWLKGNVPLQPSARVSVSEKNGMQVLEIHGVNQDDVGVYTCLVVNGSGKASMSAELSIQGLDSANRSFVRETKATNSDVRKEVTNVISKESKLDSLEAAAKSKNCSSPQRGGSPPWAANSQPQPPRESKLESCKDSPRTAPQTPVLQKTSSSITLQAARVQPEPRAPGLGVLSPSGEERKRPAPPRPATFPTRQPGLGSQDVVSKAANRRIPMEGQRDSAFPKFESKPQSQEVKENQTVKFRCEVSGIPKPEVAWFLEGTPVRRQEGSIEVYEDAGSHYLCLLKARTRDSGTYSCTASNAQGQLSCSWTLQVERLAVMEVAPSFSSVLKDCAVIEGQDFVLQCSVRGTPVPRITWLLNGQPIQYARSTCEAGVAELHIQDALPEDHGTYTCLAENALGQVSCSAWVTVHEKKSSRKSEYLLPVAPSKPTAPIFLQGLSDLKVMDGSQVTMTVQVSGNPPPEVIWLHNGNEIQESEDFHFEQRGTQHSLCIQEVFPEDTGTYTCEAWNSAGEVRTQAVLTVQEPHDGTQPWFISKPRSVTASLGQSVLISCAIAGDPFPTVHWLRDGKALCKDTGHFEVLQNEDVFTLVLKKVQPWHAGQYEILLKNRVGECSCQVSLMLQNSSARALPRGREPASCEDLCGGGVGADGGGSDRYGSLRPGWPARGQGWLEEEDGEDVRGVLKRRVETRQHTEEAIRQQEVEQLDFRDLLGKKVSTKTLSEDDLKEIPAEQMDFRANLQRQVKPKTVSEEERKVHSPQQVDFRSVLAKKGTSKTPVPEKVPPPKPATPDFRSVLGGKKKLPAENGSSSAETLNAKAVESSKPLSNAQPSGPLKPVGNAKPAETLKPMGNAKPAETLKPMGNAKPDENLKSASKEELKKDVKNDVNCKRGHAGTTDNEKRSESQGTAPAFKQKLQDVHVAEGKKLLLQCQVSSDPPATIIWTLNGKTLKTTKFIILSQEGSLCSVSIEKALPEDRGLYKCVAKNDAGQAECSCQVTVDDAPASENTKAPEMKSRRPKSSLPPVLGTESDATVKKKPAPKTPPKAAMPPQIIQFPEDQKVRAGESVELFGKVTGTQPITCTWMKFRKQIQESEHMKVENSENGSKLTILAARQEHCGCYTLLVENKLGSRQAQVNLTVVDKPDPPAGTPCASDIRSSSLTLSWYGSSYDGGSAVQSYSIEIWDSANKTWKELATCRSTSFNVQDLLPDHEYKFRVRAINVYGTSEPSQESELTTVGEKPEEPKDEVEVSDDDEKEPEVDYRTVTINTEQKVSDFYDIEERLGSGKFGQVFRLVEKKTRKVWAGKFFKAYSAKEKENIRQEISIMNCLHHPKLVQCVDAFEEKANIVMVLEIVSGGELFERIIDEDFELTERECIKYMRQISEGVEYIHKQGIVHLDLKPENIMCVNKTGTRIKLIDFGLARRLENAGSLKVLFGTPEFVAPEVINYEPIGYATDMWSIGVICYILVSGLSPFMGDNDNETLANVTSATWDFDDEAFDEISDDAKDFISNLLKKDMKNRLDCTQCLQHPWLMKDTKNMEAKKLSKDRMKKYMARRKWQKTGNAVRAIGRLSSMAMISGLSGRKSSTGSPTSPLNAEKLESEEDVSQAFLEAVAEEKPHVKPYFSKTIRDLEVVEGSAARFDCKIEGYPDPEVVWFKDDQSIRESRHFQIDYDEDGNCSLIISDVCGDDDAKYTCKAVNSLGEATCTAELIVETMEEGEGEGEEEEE
Maternal embryonic leucine zipper kinase (Homo sapiens), sequence (Q14680 whole entry, looked up): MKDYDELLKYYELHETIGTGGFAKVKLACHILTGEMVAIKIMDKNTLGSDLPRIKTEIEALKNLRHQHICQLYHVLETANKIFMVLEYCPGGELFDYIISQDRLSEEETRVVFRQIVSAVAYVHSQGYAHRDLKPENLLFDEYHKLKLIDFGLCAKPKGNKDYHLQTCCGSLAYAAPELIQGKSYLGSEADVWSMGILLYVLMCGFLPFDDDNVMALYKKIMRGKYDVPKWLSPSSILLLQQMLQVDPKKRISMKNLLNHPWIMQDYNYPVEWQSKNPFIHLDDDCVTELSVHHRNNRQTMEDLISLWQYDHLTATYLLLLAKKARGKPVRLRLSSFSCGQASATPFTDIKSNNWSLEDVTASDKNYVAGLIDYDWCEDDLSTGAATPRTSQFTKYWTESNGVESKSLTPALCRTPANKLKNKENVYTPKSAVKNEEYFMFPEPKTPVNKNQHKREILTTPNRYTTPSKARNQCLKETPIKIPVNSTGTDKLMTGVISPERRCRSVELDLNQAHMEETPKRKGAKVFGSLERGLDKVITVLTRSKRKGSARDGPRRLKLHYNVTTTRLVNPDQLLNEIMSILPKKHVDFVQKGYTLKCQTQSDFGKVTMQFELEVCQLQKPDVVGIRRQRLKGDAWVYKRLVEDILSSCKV
Ribosomal protein S6 kinase beta-1 (Homo sapiens), sequence (P23443 whole entry, looked up): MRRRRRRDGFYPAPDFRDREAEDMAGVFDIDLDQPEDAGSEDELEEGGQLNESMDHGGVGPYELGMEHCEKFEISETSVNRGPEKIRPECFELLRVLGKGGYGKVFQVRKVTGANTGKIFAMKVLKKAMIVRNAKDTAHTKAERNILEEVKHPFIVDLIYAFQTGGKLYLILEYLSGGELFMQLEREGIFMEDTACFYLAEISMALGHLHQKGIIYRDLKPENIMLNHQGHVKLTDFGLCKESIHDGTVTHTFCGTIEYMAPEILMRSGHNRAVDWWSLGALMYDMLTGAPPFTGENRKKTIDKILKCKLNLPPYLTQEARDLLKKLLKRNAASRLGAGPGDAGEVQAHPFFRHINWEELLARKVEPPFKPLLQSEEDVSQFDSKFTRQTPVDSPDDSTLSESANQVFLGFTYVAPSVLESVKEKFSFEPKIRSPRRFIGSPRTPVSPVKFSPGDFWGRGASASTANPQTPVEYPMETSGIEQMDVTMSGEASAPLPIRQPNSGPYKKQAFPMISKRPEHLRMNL
Aurora kinase B (Homo sapiens), sequence (Q96GD4 whole entry): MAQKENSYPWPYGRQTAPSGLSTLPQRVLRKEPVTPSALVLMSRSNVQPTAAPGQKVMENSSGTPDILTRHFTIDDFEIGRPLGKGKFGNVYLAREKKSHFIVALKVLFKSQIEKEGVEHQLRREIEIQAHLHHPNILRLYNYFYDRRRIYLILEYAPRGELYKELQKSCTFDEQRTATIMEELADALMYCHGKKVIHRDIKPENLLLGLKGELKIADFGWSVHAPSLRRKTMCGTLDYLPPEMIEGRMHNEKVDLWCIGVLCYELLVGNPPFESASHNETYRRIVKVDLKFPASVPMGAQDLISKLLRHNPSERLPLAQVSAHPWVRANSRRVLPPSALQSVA
Serine/threonine-protein kinase Nek6 (Homo sapiens), sequence (Q9HC98 whole entry): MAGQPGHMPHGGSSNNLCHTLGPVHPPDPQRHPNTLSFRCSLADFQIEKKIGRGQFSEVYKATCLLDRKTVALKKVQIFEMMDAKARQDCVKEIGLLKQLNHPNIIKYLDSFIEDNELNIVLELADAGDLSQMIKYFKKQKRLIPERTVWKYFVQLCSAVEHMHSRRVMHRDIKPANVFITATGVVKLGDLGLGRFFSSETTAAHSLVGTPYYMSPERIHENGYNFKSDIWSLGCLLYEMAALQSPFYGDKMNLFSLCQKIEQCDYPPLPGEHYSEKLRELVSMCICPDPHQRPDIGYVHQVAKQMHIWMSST

| Activity [1] | Activity [2] | Activity [3] | Activity [4] | Activity [5] | Activity [6] | Activity [7] | Activity [8] | Activity [9] | Activity [10] | Activity [11] | Activity [12] | Activity [13] | Activity [14] | Compound |
| --- | --- | --- | --- | --- | --- | --- | --- | --- | --- | --- | --- | --- | --- | --- |
| 115% | 90.6% | 77.3% | 77.2% | 63.5% | 80.5% | 88.9% | 61.9% | 45.6% | 44.3% | 17.9% | 38.9% | 16.5% | 70.4% | CC(=O)Nc1cccc(-c2cnc3[nH]nc(C)c3c2)c1 |
| 69% | 108% | 64.9% | 93.5% | 67.1% | 107% | 106% | 21.4% | 79.3% | 75.3% | 79.2% | 106% | 99.7% | 66% | CC(=O)Nc1nccc(-c2c(-c3ccccc3)noc2C)n1 |
| 99% | 85% | 86% | 102% | 78% | 68% | 91% | 82% | 62% | 99% | 62% | 64% | 69% | 98% | CCCC(=O)Nc1n[nH]c2ncc(-c3cccnc3)cc12 |
